# Results from article PMC5900025, “Naphthoquinone Derivatives as Scaffold to Develop New Drugs for Tuberculosis Treatment” (Frontiers in Microbiology, 2018).
# Assays:
# [1] = test system: M. tuberculosis mono-resistant to INH (INHR, ATCC 35822), katG S315T; format: cell-based, Mycobacterium tuberculosis
# [2] = test system: M. tuberculosis mono-resistant to RIF (RMPR, ATCC 35838), rpoB H526Y; format: cell-based, Mycobacterium tuberculosis
compound,measurement,setting,value
"O=C1C=C(Nc2ccccc2)C(=O)c2ccccc21 [Compound 6, 2-(Phenylamino)naphthalene-1,4-dione]",MIC,[1],100.4 µM
same,MIC,[2],12.5 µM
"C=CCOC1=CC(=O)c2ccccc2C1=O [Compound 4, 2-(Allyloxy)naphthalene-1,4-dione]",MIC,[1],234 µM
same,MIC,[2],234 µM
"NNC(=O)c1ccncc1 [INH, isoniazid, reference compound]",MIC,[1],14.6 µM
same,MIC,[2],≤0.219 µM
"O=C1C(Cl)=C(Cl)C(=O)c2ccccc21 [Compound 1, 2,3-Dichloronaphthalene-1,4-dione]",MIC,[1],110.6 µM
same,MIC,[2],110.6 µM
"CO[C@H]1/C=C/O[C@@]2(C)Oc3c(C)c(O)c4c(O)c(c(/C=N/N5CCN(C)CC5)c(O)c4c3C2=O)NC(=O)/C(C)=C\C=C\[C@H](C)[C@H](O)[C@@H](C)[C@@H](O)[C@@H](C)[C@H](OC(C)=O)[C@@H]1C [RIF, rifampicin, reference compound]",MIC,[1],0.304 µM
same,MIC,[2],622.2 µM
"CC1(C)CC2=C(O1)C(=O)c1ccccc1C2=O [Compound 3, 2,2-Dimethyl-2,3-dihydronaphtho[2,3-b]furan-4,9-dione]",MIC,[1],54.8 µM
same,MIC,[2],54.8 µM
"CC1(C)CCC2=C(O1)C(=O)c1ccccc1C2=O [Compound 2, 2,2-Dimethyl-3,4-dihydro-2H-benzo[g]chromene-5, 10-dione]",MIC,[1],206.6 µM
same,MIC,[2],206.6 µM
"NC1=CC(=O)c2ccccc2C1=O [Compound 5, 2-Aminonaphthalene-1,4-dione]",MIC,[1],36.1 µM
same,MIC,[2],36.1 µM
